Common to all, as to assay type: functional
In assay [1] the test system is Staphylococcus aureus. Description: Antimicrobial activity against Staphylococcus aureus NCTC 6571 at 5 ug/disk after 18 to 20 hrs by disk diffusion assay. The note with it: read-out: IZ.
The subject of assay [2] is Staphylococcus aureus. Briefly: Antimicrobial activity against Staphylococcus aureus NCTC 10399 at 5 ug/disk after 18 to 20 hrs by disk diffusion assay. The conditions noted are these: read-out: IZ. (In general: A growth-free zone around the sample is the usual read-out of agar diffusion tests.)
The subject of assay [3] is Staphylococcus aureus. Briefly: Antimicrobial activity against ciprofloxacin and methicillin-resistant Staphylococcus aureus HG-1 at 5 ug/disk after 18 to 20 hrs by disk diffusion assay. The note with it: read-out: IZ.
In assay [4] the test system is Staphylococcus epidermidis. Description: Antimicrobial activity against Staphylococcus epidermidis NCTC 11047 at 5 ug/disk after 18 to 20 hrs by disk diffusion assay. The conditions noted are these: read-out: IZ.
In assay [5] the test system is Staphylococcus epidermidis. Description: Antimicrobial activity against Staphylococcus epidermidis NCTC 2749 at 5 ug/disk after 18 to 20 hrs by disk diffusion assay. The note with it: read-out: IZ.
For assay [6], the system named is Staphylococcus haemolyticus. Description: Antimicrobial activity against Staphylococcus haemolyticus NCTC 11042 at 5 ug/disk after 18 to 20 hrs by disk diffusion assay. The note with it: read-out: IZ.
Assay [7] has as its system Staphylococcus aureus. Description: Antimicrobial activity against ciprofloxacin and epidemic methicillin-resistant Staphylococcus aureus BIG 0052 at 5 ug/disk after 18 to 20 hrs by disk diffusion assay. The note with it: read-out: IZ.
Assay [8] has as its system Pseudomonas aeruginosa. Description: Antimicrobial activity against Pseudomonas aeruginosa NCTC 6749 at 5 ug/disk after 18 to 20 hrs by disk diffusion assay. The note with it: read-out: IZ.
The subject of assay [9] is Pseudomonas aeruginosa. Briefly: Antimicrobial activity against Pseudomonas aeruginosa BIG 0039 at 5 ug/disk after 18 to 20 hrs by disk diffusion assay. The conditions noted are these: read-out: IZ.
The test system of assay [10] is Pseudomonas aeruginosa. Description: Antimicrobial activity against Pseudomonas aeruginosa BIG 0037 at 5 ug/disk after 18 to 20 hrs by disk diffusion assay. The conditions noted are these: read-out: IZ.
For assay [11], the system named is Pseudomonas aeruginosa. Briefly: Antimicrobial activity against Pseudomonas aeruginosa NCTC 10662 at 5 ug/disk after 18 to 20 hrs by disk diffusion assay. The conditions noted are these: read-out: IZ.
The subject of a further assay is Burkholderia cepacia. Description: Antimicrobial activity against Burkholderia cepacia NCTC 10744 at 5 ug/disk after 18 to 20 hrs by disk diffusion assay. The conditions noted are these: read-out: IZ.
The test system of assay [12] is Escherichia coli. Description: Antimicrobial activity against ciprofloxacin-resistant Escherichia coli BIG 0046 at 5 ug/disk after 18 to 20 hrs by disk diffusion assay. The note with it: read-out: IZ.
In assay [13] the test system is Escherichia coli. Description: Antimicrobial activity against Escherichia coli NCTC 10418 at 5 ug/disk after 18 to 20 hrs by disk diffusion assay. The conditions noted are these: read-out: IZ.
The subject of assay [14] is Escherichia coli. Briefly: Antimicrobial activity against ciprofloxacin-resistant Escherichia coli BIG 0051 at 5 ug/disk after 18 to 20 hrs by disk diffusion assay. The note with it: read-out: IZ.
Assay [15] relates to Escherichia coli. Briefly: Antimicrobial activity against wild-type Escherichia coli K-12 BW-25113 at 0.15 ug after overnight incubation in presence of 1 uM Fe3-cation.
The test system of assay [16] is Escherichia coli. Description: Antimicrobial activity against wild-type Escherichia coli K-12 BW-25113 at 0.15 ug after overnight incubation in presence of 1000 uM Fe3-cation.
For assay [17], the system named is Escherichia coli. Briefly: Antimicrobial activity against isogenic Escherichia coli K-12 […] mutant at 0.15 ug after overnight incubation in presence of 1 uM Fe3-cation.
In assay [18] the test system is Escherichia coli. Description: Antimicrobial activity against isogenic Escherichia coli K-12 […] mutant at 0.15 ug after overnight incubation in presence of 1000 uM Fe3-cation.
The test system of assay [19] is Staphylococcus aureus. Briefly: Antimicrobial activity against epidemic methicillin-resistant Staphylococcus aureus NCTC 13142 at 5 ug/disk after 18 to 20 hrs by disk diffusion assay. The conditions noted are these: read-out: IZ.
Assay [20] relates to Staphylococcus aureus. Briefly: Antimicrobial activity against ciprofloxacin and epidemic methicillin-resistant Staphylococcus aureus NCTC 13143 at 5 ug/disk after 18 to 20 hrs by disk diffusion assay. The note with it: read-out: IZ.
Assay [21] concerns Pseudomonas aeruginosa. Description: Antimicrobial activity against Pseudomonas aeruginosa BIG 0063 at 5 ug/disk after 18 to 20 hrs by disk diffusion assay. The note with it: read-out: IZ.
The subject of another assay is Serratia marcescens. Description: Antimicrobial activity against Serratia marcescens NCTC 1377 at 5 ug/disk after 18 to 20 hrs by disk diffusion assay. The note with it: read-out: IZ.

We go through three compounds from ChEMBL document CHEMBL1152871, “Synthesis of citrate-ciprofloxacin conjugates” (2009).

For the compound `O=C(O)CC(O)(CC(=O)N1CCN(c2cc3c(cc2F)c(=O)c(C(=O)O)cn3C2CC2)CC1)C(=O)O` (centres undefined), the zone of inhibition at 5 µg/disc with Staphylococcus aureus [1] amounted to 17 mm; in the assay on Staphylococcus aureus [2], 20 mm; in the assay on Staphylococcus aureus [3], 0 mm; in [4], 28 mm; in [5], 28 mm; in assay [6] it was 30 mm. The zone of inhibition at 5 µg/disc in the assay on Staphylococcus aureus [7] was 0 mm; in the assay with Pseudomonas aeruginosa [8], 23 mm; in the assay on Pseudomonas aeruginosa [9], 18 mm; in the assay on Pseudomonas aeruginosa [10], 25 mm; in the assay with Pseudomonas aeruginosa [11], 23 mm; in the assay on Burkholderia cepacia it was 18 mm. For the same compound, the zone of inhibition at 5 µg/disc in the assay with Escherichia coli [12] came to 0 mm; in the assay on Escherichia coli [13] it was 30 mm; in the assay with Escherichia coli [14], 0 mm. Also, the “inhibition zone (IZ)” value in the assay on Escherichia coli [15] is given as 1.1 cm; with Escherichia coli [16], 1.3 cm; with Escherichia coli [17], 0.6 cm; in the assay on Escherichia coli [18] it was 0.8 cm.

As to `O=C(O)CC(O)(CC(=O)O)C(=O)N1CCN(c2cc3c(cc2F)c(=O)c(C(=O)O)cn3C2CC2)CC1`, the zone of inhibition at 5 µg/disc is 20 mm in the assay on Staphylococcus aureus [1]; 23 mm in the assay on Staphylococcus aureus [2]; 0 mm in the assay with Staphylococcus aureus [3]; 21 mm in the assay with Staphylococcus aureus [19]; 0 mm in the assay on Staphylococcus aureus [20]; 21 mm in assay [4]. For the same compound, the zone of inhibition at 5 µg/disc in assay [5] is 24 mm; in assay [6], 20 mm; in the assay with Staphylococcus aureus [7] it was 0 mm; with Pseudomonas aeruginosa [10], 24 mm; in the assay with Pseudomonas aeruginosa [21] it was 24 mm; with Serratia marcescens it was 25 mm. Moreover, the zone of inhibition at 5 µg/disc is 18 mm with Burkholderia cepacia, 0 mm with Escherichia coli [12], 27 mm in the assay on Escherichia coli [13] and 0 mm with Escherichia coli [14].

Consider `O=C(O)c1cn(C2CC2)c2cc(N3CCNCC3)c(F)cc2c1=O` [CIPROFLOXACIN], for which the zone of inhibition at 5 µg/disc was 24 mm in the assay with Staphylococcus aureus [1]; 27 mm with Staphylococcus aureus [2]; 0 mm in the assay with Staphylococcus aureus [3]; 22 mm with Staphylococcus aureus [19]; 0 mm with Staphylococcus aureus [20]; 25 mm in [4]. Besides, the zone of inhibition at 5 µg/disc in assay [5] was determined as 29 mm; in assay [6] it was 25 mm; with Staphylococcus aureus [7], 0 mm; with Pseudomonas aeruginosa [8], 35 mm; in the assay with Pseudomonas aeruginosa [9], 27 mm; in the assay with Pseudomonas aeruginosa [10], 31 mm. Besides, the zone of inhibition at 5 µg/disc is 31 mm in the assay with Pseudomonas aeruginosa [11]; 32 mm in the assay on Pseudomonas aeruginosa [21]; 30 mm in the assay on Serratia marcescens; 22 mm in the assay on Burkholderia cepacia; 0 mm in the assay on Escherichia coli [12]; 32 mm with Escherichia coli [13]. The zone of inhibition at 5 µg/disc in the assay with Escherichia coli [14] was 0 mm.
